Laboratory results: patent US20070128217A1 (priority 2003, published 2007)

Columns and labels:
[1] = tested on: antibodies in sera from SARS patients (sera 1a, 1b, 2, 6, 37, 62, London, SARS-yellow, SARS-green); format: binding, human; design: Binding of serum 6 to linear peptides of protein X1 of SARS-CoV Urbani / Binding of serum 37 to linear peptides of protein X1 of SARS-CoV Urbani / Binding of serum 6 to looped/cyclic peptide (PEPSCAN-ELISA) / Binding of serum 37 to looped/cyclic peptide (PEPSCAN-ELISA) / Binding of serum 37 to looped/cyclic peptides of protein X1 of SARS-CoV Urbani / Binding of serum 6 to linear peptides of protein X2 / Binding of serum 37 to linear peptides of protein X2 / Binding of serum 37 to looped/cyclic peptides of protein X2 of SARS-CoV Urbani / Binding of serum 6 to linear peptides of protein M of SARS-CoV Urbani / Binding of serum 37 to linear peptides of protein M of SARS-CoV Urbani / Binding of serum 6 to looped/cyclic peptides of protein M of SARS-CoV Urbani / Binding of serum 37 to looped/cyclic peptides of protein M of SARS-CoV Urbani / Binding of serum 6 to linear peptides of protein X3 of SARS-CoV Urbani / Binding of serum 37 to linear peptides of protein X3 of SARS-CoV Urbani / Binding of serum 37 to looped/cyclic peptides of protein X3 of SARS-CoV Urbani / Binding of serum 6 to linear peptides of protein X4 of SARS-CoV Urbani / Binding of serum 37 to linear peptides of protein X4 of SARS-CoV Urbani / Binding of serum 37 to looped/cyclic peptides of protein X4 of SARS-CoV Urbani / Binding of serum 6 to linear peptides of protein X5 of SARS-CoV Urbani / Binding of serum 37 to linear peptides of protein X5 of SARS-CoV Urbani / Binding of serum 37 to looped/cyclic peptides of protein X5 of SARS-CoV Urbani / Binding of serum 6 to linear peptides of protein N of SARS-CoV Urbani / Binding of serum 37 to linear peptides of protein N of SARS-CoV Urbani / Binding of serum 6 to linear peptide (PEPSCAN-ELISA) / Binding of serum 1a to looped/cyclic peptides of protein N of SARS-CoV Urbani / Binding of serum 1b to looped/cyclic peptides of protein N of SARS-CoV Urbani / Binding of serum 2 to looped/cyclic peptides of protein N of SARS-CoV Urbani / Binding of serum 6 to looped/cyclic peptides of protein N of SARS-CoV Urbani / Binding of serum 37 to looped/cyclic peptides of protein N of SARS-CoV Urbani / Binding of serum 62 to looped/cyclic peptides of protein N of SARS-CoV Urbani / Binding of serum London to looped/cyclic peptides of protein N of SARS-CoV Urbani / Binding of serum SARS-green to looped/cyclic peptides of protein N of SARS-CoV Urbani: unit not given here
[2] = tested on: control sera (pooled serum of ten healthy LUMC hospital workers; commercial negative donor pooled serum from the Dutch bloodbank); format: binding, human; design: Binding of Control serum LUMC to linear peptides / Binding of Control serum Blood-bank to linear peptides / Binding of Control serum LUMC to looped peptides / Binding of Control Serum Blood-Bank to Looped peptides / Binding of Control serum LUMC to linear peptides of the protein M of SARS-CoV Urbani / Binding of Control serum Blood-bank to linear peptides of the protein M of SARS-CoV Urbani / Binding of Control serum LUMC to looped peptides of the protein M of SARS-CoV Urbani / Binding of Control Serum Blood-Bank to Looped peptides of the protein M of SARS-CoV Urbani: unit not given here
[3] = tested on: rabbit serum obtained by immunizing a rabbit with the SARS-CoV strain Frankfurt 1; format: binding; design: Binding of a rabbit serum to linear peptides / Binding of a rabbit serum to looped peptides / Rabbit serum linear peptides / Rabbit serum looped peptides / Binding of a rabbit serum to linear peptides of protein N of SARS-CoV Urbani (Rabbit serum linear peptides) / Binding of a rabbit serum to looped/cyclic peptides of protein N of SARS-CoV Urbani (Rabbit serum looped peptides): unit not given here

Sequence: YNSVTDTIVVTEGDG
- Binding of serum 1a to linear peptides of protein X1 of SARS-CoV Urbani [1]: 0.6
- Binding of serum 1a to looped/cyclic peptides of protein X1 of SARS-CoV Urbani [1]: 0.4
- Binding of serum 1b to linear peptides of protein X1 of SARS-CoV Urbani [1]: 0.5
- Binding of serum 1b to looped/cyclic peptides of protein X1 of SARS-CoV Urbani [1]: 0.3
- Binding of serum 2 to linear peptides of protein X1 of SARS-CoV Urbani [1]: 0.4
- Binding of serum 2 to looped/cyclic peptides of protein X1 of SARS-CoV Urbani [1]: 0.2
- Binding of serum 6 to linear peptides of protein X1 of SARS-CoV Urbani [1]: 0.4
- Binding of serum 6 to looped/cyclic peptides of protein X1 of SARS-CoV Urbani [1]: 0.2
- Binding of serum 37 to linear peptides of protein X1 of SARS-CoV Urbani [1]: 0.5
- Binding of serum 37 to looped/cyclic peptides of protein X1 of SARS-CoV Urbani [1]: 0.4
- Binding of serum 62 to linear peptides of protein X1 of SARS-CoV Urbani [1]: 0.5
- Binding of serum 62 to looped/cyclic peptides of protein X1 of SARS-CoV Urbani [1]: 0.3
- Binding of serum London to linear peptides of protein X1 of SARS-CoV Urbani [1]: 0.2
- Binding of serum London to looped/cyclic peptides of protein X1 of SARS-CoV Urbani [1]: 0.2
- Binding of serum SARS-green to linear peptides of protein X1 of SARS-CoV Urbani [1]: 0.3
- Binding of serum SARS-green to looped/cyclic peptides of protein X1 of SARS-CoV Urbani [1]: 0.3
- Binding of serum SARS-yellow to linear peptides of protein X1 of SARS-CoV Urbani [1]: 0.4
- Binding of serum SARS-yellow to looped/cyclic peptides of protein X1 of SARS-CoV Urbani [1]: 0.3
- Binding of Control Serum Blood-Bank to Looped peptides [2]: 0.3
- Binding of Control serum Blood-bank to linear peptides [2]: 0.4
- Binding of Control serum LUMC to linear peptides [2]: 0.4
- Binding of Control serum LUMC to looped peptides [2]: 0.4
- Binding of a rabbit serum to linear peptides [3]: 0.1
- Binding of a rabbit serum to looped peptides [3]: 0.5

Sequence: ITVATSRTLSYYKLG
- Binding of serum 1a to linear peptides of protein M of SARS-CoV Urbani [1]: 0.6
- Binding of serum 1a to looped/cyclic peptides of protein M of SARS-CoV Urbani [1]: 1.0
- Binding of serum 1b to linear peptides of protein M of SARS-CoV Urbani [1]: 0.4
- Binding of serum 1b to looped/cyclic peptides of protein M of SARS-CoV Urbani [1]: 0.6
- Binding of serum 2 to linear peptides of protein M of SARS-CoV Urbani [1]: 0.5
- Binding of serum 2 to looped/cyclic peptides of protein M of SARS-CoV Urbani [1]: 0.8
- Binding of serum 6 to linear peptides of protein M of SARS-CoV Urbani [1]: 0.5
- Binding of serum 6 to looped/cyclic peptides of protein M of SARS-CoV Urbani [1]: 1.1
- Binding of serum 37 to linear peptides of protein M of SARS-CoV Urbani [1]: 0.4
- Binding of serum 37 to looped/cyclic peptides of protein M of SARS-CoV Urbani [1]: 0.3
- Binding of serum 62 to linear peptides of protein M of SARS-CoV Urbani [1]: 0.4
- Binding of serum 62 to looped/cyclic peptides of protein M of SARS-CoV Urbani [1]: 0.6
- Binding of serum London to linear peptides of protein M of SARS-CoV Urbani [1]: 0.3
- Binding of serum London to looped/cyclic peptides of protein M of SARS-CoV Urbani [1]: 0.4
- Binding of serum SARS-green to linear peptides of protein M of SARS-CoV Urbani [1]: 0.5
- Binding of serum SARS-green to looped/cyclic peptides of protein M of SARS-CoV Urbani [1]: 0.4
- Binding of serum SARS-yellow to linear peptides of protein M of SARS-CoV Urbani [1]: 0.2
- Binding of serum SARS-yellow to looped/cyclic peptides of protein M of SARS-CoV Urbani [1]: 0.4
- Binding of Control Serum Blood-Bank to Looped peptides of the protein M of SARS-CoV Urbani [2]: 0.5
- Binding of Control serum Blood-bank to linear peptides of the protein M of SARS-CoV Urbani [2]: 0.8
- Binding of Control serum LUMC to linear peptides of the protein M of SARS-CoV Urbani [2]: 0.7
- Binding of Control serum LUMC to looped peptides of the protein M of SARS-CoV Urbani [2]: 0.6
- Rabbit serum linear peptides [3]: 0.2
- Rabbit serum looped peptides [3]: 0.4
